# Source: US6855872B2 (priority 1997, dated 2005)
# How the values were obtained:
# [1] = system: protoplasts from wild-type tobacco plants; assay type: cell-based, Nicotiana tabacum
# [2] = system: protoplasts from transgenic plants with the rice Rpl3 gene (C3 lines); assay type: cell-based, Nicotiana tabacum
# [3] = system: protoplasts of the genotype Rpl3:c258 (C4 lines); assay type: cell-based, Nicotiana tabacum
# [4] = system: wild type non-transformed N. debneyi cell suspension (N.d.wt); assay type: cell-based
# [5] = system: cell suspensions of pCARPL3 plants (N.d.pCARPL3); assay type: cell-based, N. debneyi
# [6] = system: cells of transgenic line expressing the rice Rpl3c:258 (N.dpCARPLC4); assay type: cell-based, N. debneyi
# [7] = system: leaf explants of wild-type plants; assay type: cell-based
# [8] = system: leaf explants of pCAPRL3 plants; assay type: cell-based
# [9] = system: leaf explants from pCARPLC4 plants; assay type: cell-based
# [10] = system: maize embryogenic cultures (A188xB73) transformed with pActRPL3; assay type: cell-based
# [11] = system: maize embryogenic cultures (A188xB73) transformed with pActRPLC4; assay type: cell-based
# [12] = system: wheat anther-derived callus tissue; conditions: cited from earlier work
# mature maize embryos = conditions: cited from earlier work
structure (smiles),measurement,setting,value
"CC1=C[C@H]2O[C@@H]3[C@H](O)C[C@](C)([C@@]2(CO)[C@H](O)C1=O)[C@]31CO1 [DON, deoxynivalenol]",susceptibility of wild-type plants (protoplasts) to DON,[1],susceptible
same,micro colony formation from protoplasts,[2],did not often develop into calli
same,micro colony formation from protoplasts,[3],capable of transfer to regeneration medium
same,viability of protoplasts,[3],not significantly affected
same,weight gain of cells after 20 days in culture,[4],inhibited
same,packed cell volume and fresh weight gain of cell suspensions,[5],sufficient to inhibit
same,weight gain of cells after 20 days in culture,[5],inhibited
same,impact on packed cell volume or cell fresh weight gain,[6],less serious impact
same,weight gain of cells after 20 days in culture,[6],not inhibited as much
same,formation of callus and shoots on leaf explants,[7],inhibiting the formation of callus and shoots
same,formation of callus and shoots on leaf explants,[8],inhibiting the formation of callus and shoots
same,shoot regeneration on leaf explants,[9],capable of shoot regeneration
same,"callus growth, % of the control",[10],15%
same,DON required to reduce growth to 15% of control values,[11],50 µg/mL
same,"callus growth, % of the control",[11],63%
same,increase in tolerance to DON by the RPLC4 callus,[11],10 fold
same,growth of wheat anther-derived callus tissue,[12],reduces growth
same,DON concentration sufficient to significantly inhibit growth,mature maize embryos,10 µg/mL
